Legend:
[1] = test system: Magnaporthe grisea (Pyricularia oryzae); test: whole plant or invertebrate; assay type: in vivo; settings: read-out: inhibit fungal infestation
Alternaria solani = test: Alternaria solani/tomato/Preventive (Action against Alternaria on Tomato); assay type: in vivo; settings: preventive spray, tomato plants cv. Roter Gnom, inoculated two days after application, assessed after 4 days, untreated controls infected over 80%, read-out: inhibit fungal infestation
Method: (§1) Alternaria solani/tomato/Preventive (Action against Alternaria on Tomato) 4 weeks old tomato plants cv. Roter Gnom are treated with the formulated test compound in a spray chamber. Two days after application tomato plants are inoculated by spraying a spore suspension on the test plants. After an incubation period of 4 days at 22° C./18° C. and 95% r. h. in a greenhouse the disease incidence is assessed.

Botrytis cinerea = test: Botrytis cinerea/tomato/preventive (Action against Botrytis on Tomato); assay type: in vivo; settings: preventive spray, tomato plants cv. Roter Gnom, inoculated two days after application, assessed after 3 days, untreated controls infected over 80%, read-out: inhibit fungal infestation
Method: as §1, with “Botrytis cinerea/tomato/preventive (Action” for “Alternaria solani/tomato/Preventive (Action”, “against Botrytis” for “against Alternaria”, “of 3” for “of 4”, “at 20°” for “at 22° C./18°”

Septoria tritici = test: Sentoria tritici/wheat/Preventive (Action against Septoria Leaf Spot on Wheat); assay type: in vivo; settings: Zymoseptoria tritici, preventive spray, wheat plants cv. Riband, inoculated one day after application, assessed 16-18 days after inoculation, untreated controls infected over 80%, read-out: inhibits fungal infestation
Method: Sentoria tritici/wheat/Preventive (Action against Septoria Leaf Spot on Wheat) 2 weeks old wheat plants cv. Riband are treated with the formulated test compound in a spray chamber. One day after application wheat plants are inoculated by spraying a spore suspension (10^6 conidia/ml) on the test plants. After an incubation period of 1 day at 22° C./21° C. and 95% r. h. plants are kept at 22° C./21° C. and 70% r.h. in a greenhouse. The disease incidence is assessed 16-18 days after inoculation.

Puccinia recondita = test: Puccinia recondita/wheat/preventive (Action against Brown Rust on Wheat); assay type: in vivo; settings: preventive spray, wheat plants cv. Arina, inoculated one day after application, assessed 11 days after inoculation, untreated controls infected over 80%, read-out: inhibits fungal infestation
Method: Puccinia recondita/wheat/preventive (Action against Brown Rust on Wheat) 1 week old wheat plants cv. Arina are treated with the formulated test compound in a spray chamber. One day after application wheat plants are inoculated by spraying a spore suspension (1×105 uredospores/ml) on the test plants. After an incubation period of 1 day at 20° C. and 95% r. h. plants are kept for 10 days 20° C./18° C. (day/night) and 60% r.h. in a greenhouse. The disease incidence is assessed 11 days after inoculation.

[2] = test system: Pyrenophora teres (Helminthosporium teres); test: Pyrenophora teres (Helminthosporium teres)/barley/preventive (Action against Net Blotch on Barley); assay type: in vivo; settings: preventive spray, barley plants cv. Regina, inoculated two days after application, assessed after 4 days, untreated controls infected over 80%, read-out: inhibit fungal infestation
Method: Pyrenophora teres (Helminthosporium teres)/barley/preventive (Action against Net Blotch on Barley) 1-week-old barley plants cv. Regina are treated with the formulated test compound in a spray chamber. Two days after application barley plants are inoculated by spraying a spore suspension (2.6×10^4 conidia/ml) on the test plants. After an incubation period of 4 days at 20° C. and 95% r. h. the disease incidence is assessed.

Uncinula necator = test: Uncinula necator/grape/preventive (Action against Powdery Mildew on Grape); assay type: in vivo; settings: Erysiphe necator, preventive spray, grape seedlings cv. Gutedel, inoculated one day after application, assessed after 7 days, untreated controls infected over 80%, read-out: inhibit fungal infestation
Method: Uncinula necator/grape/preventive (Action against Powdery Mildew on Grape) 5 weeks old grape seedlings cv. Gutedel are treated with the formulated test compound in a spray chamber. One day after application grape plants are inoculated by shaking plants infected with grape powdery mildew above the test plants. After an incubation period of 7 days at 24° C./22° C. and 70% r. h. under a light regime of 14/10 h (light/dark) the disease incidence is assessed.

Fc1cc(F)c(-c2c(Cl)nnc(Cl)c2-c2cccc(Cl)c2)c(F)c1 [I.b. 198, 3,6-dichloro-4-(3-chloro-phenyl)-5-(2,4,6-trifluoro-phenyl)-pyridazine]
inhibition at 200 ppm [1]: ≥ 80% | inhibition at 200 ppm (Alternaria solani): ≥ 80% | inhibition at 200 ppm (Botrytis cinerea): ≥ 80% | inhibition at 200 ppm (Septoria tritici): ≥ 80% | melting point: 138 to 140 °C

Fc1cc(F)c(-c2c(Cl)nnc(Cl)c2-c2cccc(Br)c2)c(F)c1 [I.c. 198, 3,6-dichloro-4-(3-bromo-phenyl)-5-(2,4,6-trifluoro-phenyl)-pyridazine]
melting point: 120 to 121 °C | inhibition at 200 ppm (Puccinia recondita): ≥ 80% | inhibition at 200 ppm [2]: ≥ 80%

Cc1cccc(-c2c(Cl)nnc(Cl)c2-c2c(F)cc(F)cc2F)c1 [I.d. 198, 3,6-dichloro-4-m-tolyl-5-(2,4,6-trifluoro-phenyl)-pyridazine]
inhibition at 200 ppm (Septoria tritici): ≥ 80% | melting point: 121 to 123 °C | inhibition at 200 ppm [2]: ≥ 80%

Oc1nnc(O)c(-c2c(F)cc(F)cc2F)c1-c1cccc(C(F)(F)F)c1 [I.e.196, 4-(3-trifluoromethyl-phenyl)-5-(2,4,6-trifluoro-phenyl)-pyridazine-3,6-diol]
melting point: 259 to 260 °C

Fc1cc(F)c(-c2c(Cl)nnc(Cl)c2-c2cccc(C(F)(F)F)c2)c(F)c1 [I.e. 198, 3,6-dichloro-4-(3-trifluoromethyl-phenyl)-5-(2,4,6-trifluoro-phenyl)-pyridazine]
inhibition at 200 ppm (Botrytis cinerea): ≥ 80% | melting point: 117 to 119 °C | inhibition at 200 ppm (Uncinula necator): ≥ 80%

Fc1ccc(-c2c(F)nnc(F)c2-c2c(F)cc(F)cc2F)cc1 [I.j. 197, 3,6-difluoro-4-(4-fluoro-phenyl)-5-(2,4,6-trifluoro-phenyl)-pyridazine]
inhibition at 200 ppm (Alternaria solani): ≥ 80% | inhibition at 200 ppm (Botrytis cinerea): ≥ 80% | inhibition at 200 ppm (Septoria tritici): ≥ 80% | melting point: 74 to 76 °C | inhibition at 200 ppm (Puccinia recondita): ≥ 80% | inhibition at 200 ppm [2]: ≥ 80%

Fc1ccc(-c2c(Cl)nnc(Cl)c2-c2c(F)cc(F)cc2F)cc1 [I.j. 198, 3,6-dichloro-4-(4-fluoro-phenyl)-5-(2,4,6-trifluoro-phenyl)-pyridazine]
inhibition at 200 ppm [1]: ≥ 80% | inhibition at 200 ppm (Alternaria solani): ≥ 80% | inhibition at 200 ppm (Botrytis cinerea): ≥ 80% | inhibition at 200 ppm (Septoria tritici): ≥ 80% | melting point: 143 to 145 °C | inhibition at 200 ppm (Puccinia recondita): ≥ 80% | inhibition at 200 ppm (Uncinula necator): ≥ 80% | inhibition at 200 ppm [2]: ≥ 80%

COc1nnc(Cl)c(-c2c(F)cc(F)cc2F)c1-c1ccc(F)cc1 [I.j. 199, 3-chloro-5-(4-fluoro-phenyl)-6-methoxy-4-(2,4,6-trifluoro-phenyl)-pyridazine]
inhibition at 200 ppm [1]: ≥ 80% | inhibition at 200 ppm (Alternaria solani): ≥ 80% | inhibition at 200 ppm (Botrytis cinerea): ≥ 80% | inhibition at 200 ppm (Septoria tritici): ≥ 80% | melting point: 146 to 151 °C | inhibition at 200 ppm (Uncinula necator): ≥ 80% | inhibition at 200 ppm [2]: ≥ 80%

Oc1nnc(O)c(-c2c(F)cccc2Cl)c1-c1ccc(Cl)cc1 [I.k.076, 4-(4-chloro-phenyl)-5-(2-chloro-6-fluoro-phenyl)-pyridazine-3,6-diol]
melting point: 144 to 149 °C

Fc1cccc(Cl)c1-c1c(Cl)nnc(Cl)c1-c1ccc(Cl)cc1 [I.k.078, 3,6-dichloro-4-(2-chloro-6-fluoro-phenyl)-5-(4-chloro-phenyl)-pyridazine]
melting point: 144 to 145 °C

COc1nnc(Cl)c(-c2c(F)cccc2Cl)c1-c1ccc(Cl)cc1 [I.k.079, 3-chloro-4-(2-chloro-6-fluoro-phenyl)-5-(4-chloro-phenyl)-6-methoxy-pyridazine]
melting point: 137 to 141 °C

Oc1nnc(O)c(-c2c(F)cc(F)cc2F)c1-c1ccc(Cl)cc1 [I.k.196, 4-(4-chloro-phenyl)-5-(2,4,6-trifluoro-phenyl)-pyridazine-3,6-diol]
melting point: 158 to 164 °C

Fc1cc(F)c(-c2c(Cl)nnc(Cl)c2-c2ccc(Cl)cc2)c(F)c1 [I.k. 198, 3,6-dichloro-4-(4-chloro-phenyl)-5-(2,4,6-trifluoro-phenyl)-pyridazine]
inhibition at 200 ppm [1]: ≥ 80% | inhibition at 200 ppm (Botrytis cinerea): ≥ 80% | inhibition at 200 ppm (Septoria tritici): ≥ 80% | inhibition at 200 ppm (Puccinia recondita): ≥ 80% | inhibition at 200 ppm (Uncinula necator): ≥ 80% | inhibition at 200 ppm [2]: ≥ 80%

O=c1[nH][nH]c(=O)c(-c2c(F)cc(F)cc2F)c1-c1ccc(Br)cc1 [I.l.196, 4-(4-bromophenyl)-5-(2,4,6-trifluorophenyl)-1,2-dihydro-pyridazine-3,6-dione]
melting point: 272 to 274 °C

Fc1cc(F)c(-c2c(F)nnc(F)c2-c2ccc(Br)cc2)c(F)c1 [I.l. 197, 4-(4-bromophenyl)-3,6-difluoro-5-(2,4,6-trifluorophenyl)-pyridazine]
inhibition at 200 ppm [1]: ≥ 80% | inhibition at 200 ppm (Alternaria solani): ≥ 80% | inhibition at 200 ppm (Septoria tritici): ≥ 80% | melting point: 132 to 133 °C | inhibition at 200 ppm (Puccinia recondita): ≥ 80% | inhibition at 200 ppm (Uncinula necator): ≥ 80% | inhibition at 200 ppm [2]: ≥ 80%

Fc1cc(F)c(-c2c(Cl)nnc(Cl)c2-c2ccc(Br)cc2)c(F)c1 [I.l. 198, 4-(4-bromophenyl)-3,6-dichloro-5-(2,4,6-trifluorophenyl)-pyridazine]
inhibition at 200 ppm [1]: ≥ 80% | inhibition at 200 ppm (Alternaria solani): ≥ 80% | inhibition at 200 ppm (Botrytis cinerea): ≥ 80% | inhibition at 200 ppm (Septoria tritici): ≥ 80% | melting point: 134 to 137 °C | inhibition at 200 ppm (Puccinia recondita): ≥ 80% | inhibition at 200 ppm [2]: ≥ 80%

Cc1ccc(-c2c(Cl)nnc(Cl)c2-c2c(F)cc(F)cc2F)cc1 [I.m. 198, 3,6-dichloro-4-p-tolyl-5-(2,4,6-trifluoro-phenyl)-pyridazine]
inhibition at 200 ppm (Alternaria solani): ≥ 80% | inhibition at 200 ppm (Botrytis cinerea): ≥ 80% | inhibition at 200 ppm (Septoria tritici): ≥ 80% | inhibition at 200 ppm (Puccinia recondita): ≥ 80% | inhibition at 200 ppm (Uncinula necator): ≥ 80% | inhibition at 200 ppm [2]: ≥ 80%

COc1nnc(Cl)c(-c2c(F)cc(F)cc2F)c1-c1ccc(C)cc1 [I.m. 199, 3-chloro-6-methoxy-5-p-tolyl-4-(2,4,6-trifluoro-phenyl)-pyridazine]
inhibition at 200 ppm (Septoria tritici): ≥ 80% | melting point: 126 to 128 °C | inhibition at 200 ppm (Puccinia recondita): ≥ 80%

CCc1ccc(-c2c(O)nnc(O)c2-c2c(F)cc(F)cc2F)cc1 [I.o.196, 4-(4-ethyl-phenyl)-5-(2,4,6-trifluoro-phenyl)-pyridazine-3,6-diol]
melting point: 278 to 289 °C

CCc1ccc(-c2c(OC)nnc(Cl)c2-c2c(F)cc(F)cc2F)cc1 [I.o. 199, 3-chloro-5-(4-ethyl-phenyl)-6-methoxy-4-(2,4,6-trifluoro-phenyl)-pyridazine]
inhibition at 200 ppm [1]: ≥ 80% | inhibition at 200 ppm (Alternaria solani): ≥ 80% | inhibition at 200 ppm (Septoria tritici): ≥ 80% | melting point: 109 to 112 °C | inhibition at 200 ppm (Puccinia recondita): ≥ 80% | inhibition at 200 ppm (Uncinula necator): ≥ 80%

COc1ccc(-c2c(O)nnc(O)c2-c2c(F)cc(F)cc2F)cc1 [I.p.196, 4-(4-methoxy-phenyl)-5-(2,4,6-trifluoro-phenyl)-pyridazine-3,6-diol]
melting point: 287 to 294 °C

COc1ccc(-c2c(Cl)nnc(Cl)c2-c2c(F)cc(F)cc2F)cc1 [I.p. 198, 3,6-dichloro-4-(4-methoxy-phenyl)-5-(2,4,6-trifluoro-phenyl)-pyridazine]
inhibition at 200 ppm [1]: ≥ 80% | inhibition at 200 ppm (Alternaria solani): ≥ 80% | inhibition at 200 ppm (Botrytis cinerea): ≥ 80% | inhibition at 200 ppm (Septoria tritici): ≥ 80% | melting point: 106 to 109 °C | inhibition at 200 ppm (Uncinula necator): ≥ 80%

Fc1cc(F)c(-c2c(Cl)nnc(Cl)c2-c2ccc(Cl)c(Cl)c2)c(F)c1 [I.v. 198, 3,6-dichloro-4-(3,4-dichloro-phenyl)-5-(2,4,6-trifluoro-phenyl)-pyridazine]
inhibition at 200 ppm (Alternaria solani): ≥ 80% | inhibition at 200 ppm (Botrytis cinerea): ≥ 80% | inhibition at 200 ppm (Septoria tritici): ≥ 80% | melting point: 139 to 140 °C | inhibition at 200 ppm [2]: ≥ 80%
